The source of these data is paper PMC10353187, “Discovery of a new potent oxindole multi-kinase inhibitor among a series of designed 3-alkenyl-oxindoles with ancillary carbonic anhydrase inhibitory activity as antiproliferative agents” (BMC Chemistry, 2023).

Each structure is given as a SMILES string. Bounds are passed on as bounds.

Series [1] concerns the target hCA II (Homo sapiens, UniProt P00918). As to the kind of experiment: Stopped flow CO2 hydrase assay.
Series [2] deals with PC-3. The experiment in a line: NCI-60 single-dose antiproliferative assay (SRB). The following applies: Homo sapiens; 10 μM single dose; PC-3, Prostate cancer; read-out: Cell Growth inhibition Percent. It is filed as cell-based. In short, it runs like this:
(§1)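 Readout is sulforhodamine B absorbance at 515 nm after TCA fixation, converted to percent growth versus time-zero (Tz) and control (C) plates and reported as GI%. Compounds were tested once at 10 µM for 48 h in RPMI 1640 containing 5% FBS.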

The subject of series [3] is IGROV1. As to the kind of experiment: NCI-60 single-dose antiproliferative assay (SRB). It is filed as cell-based. The following applies: Homo sapiens, IGROV-1; 10 μM single dose; IGROV1, Ovarian Cancer; read-out: Cell Growth inhibition Percent. Put shortly:
as §1

Series [4] deals with HOP-92. As to the kind of experiment: NCI-60 single-dose antiproliferative assay (SRB). The class given is cell-based. The following applies: Homo sapiens; 10 μM single dose; HOP-92, Non-small cell lung cancer; read-out: Cell Growth inhibition Percent. In short, it runs like this:
(§2)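 Plating at 5000–40,000 cells/well by doubling time; 24 h preincubation; a time-zero plate fixed at drug addition. Compound added at 10 µM final, incubated 48 h. Protein stained with SRB, measured at 515 nm, and GI% derived from Tz, C and Ti.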

Series [5] deals with EKVX. As to the kind of experiment: NCI-60 single-dose antiproliferative assay (SRB). The class given is cell-based. The following applies: Homo sapiens, 10 μM single dose, Non-small cell lung cancer, read-out: Cell Growth inhibition Percent. In short, it runs like this: as §1
Series [6] relates to CAKI-1. As to the kind of experiment: NCI-60 single-dose antiproliferative assay (SRB). It is filed as cell-based. The following applies: Homo sapiens; 10 μM single dose; CAKI-1, Renal cancer; read-out: Cell Growth inhibition Percent. In short, it runs like this: as §1
In series [7] the test system is SR. As to the kind of experiment: NCI-60 single-dose antiproliferative assay (SRB). The following applies: Homo sapiens, 10 μM single dose, Leukemia, read-out: Cell Growth inhibition Percent. It is filed as cell-based. Put shortly: as §1
The test system of series [8] is ACHN. As to the kind of experiment: NCI-60 single-dose antiproliferative assay (SRB). It is filed as cell-based. The following applies: Homo sapiens, 10 μM single dose, Renal cancer, read-out: Cell Growth inhibition Percent. Put shortly: as §1
The test system of series [9] is M14. As to the kind of experiment: NCI-60 single-dose antiproliferative assay (SRB). The class given is cell-based. The following applies: Homo sapiens; 10 μM single dose; M14, Melanoma; read-out: Cell Growth inhibition Percent. In short, it runs like this: as §1
In series [10] the test system is SF-268. As to the kind of experiment: NCI-60 single-dose antiproliferative assay (SRB). It is filed as cell-based. The following applies: Homo sapiens; 10 μM single dose; SF-268, CNS cancer; read-out: Cell Growth inhibition Percent. In short, it runs like this: as §1
For series [11], the system named is LOX IMVI. The experiment in a line: NCI-60 single-dose antiproliferative assay (SRB). The class given is cell-based. The following applies: Homo sapiens, 10 μM single dose, Melanoma, read-out: Cell Growth inhibition Percent. Put shortly: as §1
The subject of series [12] is HOP-62. The experiment in a line: NCI-60 single-dose antiproliferative assay (SRB). It is filed as cell-based. The following applies: Homo sapiens; 10 μM single dose; HOP-62, Non-small cell lung cancer; read-out: Cell Growth inhibition Percent. Put shortly: as §1
Series [13] concerns NCI-H23. As to the kind of experiment: NCI-60 single-dose antiproliferative assay (SRB). The class given is cell-based. The following applies: Homo sapiens; 10 μM single dose; NCI-H23, Non-small cell lung cancer; read-out: Cell Growth inhibition Percent. In short, it runs like this: as §2
Series [14] relates to SK-MEL-5. As to the kind of experiment: NCI-60 single-dose antiproliferative assay (SRB). The class given is cell-based. The following applies: Homo sapiens; 10 μM single dose; SK-MEL-5, Melanoma; read-out: Cell Growth inhibition Percent. In short, it runs like this:
as §1

The test system of series [15] is MCF7. As to the kind of experiment: NCI-60 single-dose antiproliferative assay (SRB). The following applies: Homo sapiens; 10 μM single dose; MCF7, Breast cancer; read-out: Cell Growth inhibition Percent. The class given is cell-based. In short, it runs like this:
as §1

The subject of series [16] is NCI-H226. As to the kind of experiment: NCI-60 single-dose antiproliferative assay (SRB). The class given is cell-based. The following applies: Homo sapiens; 10 μM single dose; NCI-H226, Non-small cell lung cancer; read-out: Cell Growth inhibition Percent. In short, it runs like this: as §1
Series [17] concerns MDA-MB-231/ATCC. As to the kind of experiment: NCI-60 single-dose antiproliferative assay (SRB). The following applies: Homo sapiens, 10 μM single dose, Breast cancer, read-out: Cell Growth inhibition Percent. It is filed as cell-based. Put shortly: as §1
The target in series [18] is hCA I (Homo sapiens, UniProt P00915). As to the kind of experiment: Stopped flow CO2 hydrase assay.
Chain of hCA I (P00915 whole entry): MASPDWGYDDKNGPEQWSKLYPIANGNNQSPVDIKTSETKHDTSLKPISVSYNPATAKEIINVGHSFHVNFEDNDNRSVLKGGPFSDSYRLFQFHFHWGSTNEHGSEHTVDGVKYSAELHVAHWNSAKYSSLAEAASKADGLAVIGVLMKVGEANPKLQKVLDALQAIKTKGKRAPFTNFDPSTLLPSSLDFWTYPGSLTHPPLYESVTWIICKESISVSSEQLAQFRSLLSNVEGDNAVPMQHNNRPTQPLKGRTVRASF

On to `O=C1Nc2ccccc2C1=CNc1ccc(C(=O)Nc2ccc(S(=O)(=O)Nc3ncccn3)cc2)cc1` [Compound 9b, 4-{[(2-Oxoindolin-3-ylidene)methyl]amino}-N-{4-[N-(pyrimidin-2-yl)sulfamoyl]phenyl}benzamide], for which the melting point is greater than 300 °C. The inhibition constant Ki in series [1] was greater than 10 µM. In series [2], the inhibition at 10 µM came out at 7.1%. In [3], the inhibition at 10 µM is 21.3%. Further, the inhibition at 10 µM in [4] came out at 4.65%. Moreover, the inhibition at 10 µM in series [5] worked out at 38.5%. In addition, in series [6], the inhibition at 10 µM came out at 27.6%. Besides, the inhibition at 10 µM in series [7] amounted to 9.02%. Moreover, the inhibition at 10 µM in series [8] is 10.5%. The inhibition at 10 µM in series [9] turned out to be 1.44%. The inhibition at 10 µM in [10] was found to be 3.48%. Besides, the inhibition at 10 µM in [11] was determined as 7.22%. The inhibition at 10 µM in [12] worked out at 27.7%. The inhibition at 10 µM in series [13] turned out to be 9.28%. Further, the inhibition at 10 µM in series [14] worked out at 6.95%. Further, the inhibition at 10 µM in [15] stood at 4.97%. Also, in [16], the inhibition at 10 µM was 12.2%. In addition, the inhibition at 10 µM in series [17] was determined as 3.83%. In addition, the Ki in series [18] is greater than 10 µM.

`O=C1Nc2ccccc2C1=CNc1ccc(C(=O)O)cc1` [Compound 4c, 4-{[(2-Oxoindolin-3-ylidene)methyl]amino}benzoic acid] had a melting point greater than 300 °C. In series [1], this compound had a Ki of 8.67 µM. Also, the inhibition at 10 µM in [2] stood at 7.71%. The inhibition at 10 µM in series [3] stood at 24.1%. Also, the inhibition at 10 µM in [4] came out at 16.4%. In series [5], the inhibition at 10 µM was 24.3%. Moreover, in series [6], the inhibition at 10 µM stood at 29.1%. In addition, the inhibition at 10 µM in series [7] came out at 4.7%. Also, the inhibition at 10 µM in [8] came to 1.58%. Also, in [9], the inhibition at 10 µM came out at 2.15%. Moreover, the inhibition at 10 µM in series [10] is 16.4%. The inhibition at 10 µM in [11] is 6.93%. Besides, the inhibition at 10 µM in [12] was 32%. In addition, in [13], the inhibition at 10 µM worked out at 7.13%. For the same compound, the inhibition at 10 µM in [14] was determined as 1.74%. Besides, the inhibition at 10 µM in [15] is 1.59%. Further, in series [16], the inhibition at 10 µM amounted to 11.4%. Moreover, the inhibition at 10 µM in [17] was 4.54%. Further, the inhibition constant (Ki) in series [18] stood at 6.32 µM.

For the compound `O=C(Nc1ccc(NC=C2C(=O)Nc3ccccc32)cc1)Nc1nccs1` [Compound 15c, 1-{4-[((2-Oxoindolin-3-ylidene)methyl)amino]phenyl}-3-(thiazol-2-yl)urea], the Ki in [1] and in [18] was greater than 10 µM each time. For the same compound, the inhibition at 10 µM in [2] came to 31.4%; in series [3], 70.5%; in series [4], 50.2%; in [5], 65.4%; in series [6], 67.1%; in [7] it was 89.3%. Moreover, the inhibition at 10 µM was 59.3% in series [8]; 81.5% in series [9]; 22.8% in [10]; 64.9% in series [11]; 62.7% in series [12]; 62.2% in series [13]. The inhibition at 10 µM in [14] was found to be 73.2%; in series [15] it was 77.3%; in series [16] it was 70%; in series [17], 52%.

On to `O=C1Nc2ccccc2C1=CNc1ccc(CNc2ccc(S(=O)(=O)Nc3ncccn3)cc2)cc1` [Compound 11b, 4-{[4-({[2-Oxoindolin-3-ylidene]methyl}amino)benzyl]amino}-N-(pyrimidin-2-yl)benzenesulfonamide], for which the Ki in [1] was 2.66 µM; in series [18], 9.11 µM. Also, the inhibition at 10 µM in series [2] came to 14.2%; in series [3], 23.5%; in series [4] it was 15.4%; in series [5] it was 16%; in series [6], 48.4%; in [7], 42.2%. The inhibition at 10 µM is 16.7% in series [8]; 0.4% in series [9]; 1.02% in series [10]; 8.3% in series [11]; 11.3% in series [12]; 17.4% in series [13]. For the same compound, the inhibition at 10 µM worked out at 15.2% in [14], 37.2% in series [15], 16.8% in series [16] and 8.34% in [17].
